Patent US20250339409A1, “USES OF PAN BET INHIBITORS” (VYNE THERAPEUTICS INC., priority 2021, published 2025)
“And” between values parts separate entries of the source, which are not always exact repeats. Identical values can stand only once.

Tested on: anti collagen antibodies induced arthritis (ACAIA)
Assay: Anti collagen antibodies induced arthritis (ACAIA) in mice, intra-articular treatment: paw thickness, arthritis clinical score, body weight;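 also: mouse arthritis induced by IV anti-collagen mAb on day 0 plus IP LPS on day 4, with body weight, caliper paw thickness and 0-4 paw score tracked against a day 0 baseline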
Details: for Average clinical score per day (untreated): untreated leg
[1] = BETi1 0.1 mg/kg IA (Group 4), Av
[2] = BETi1 0.1 mg/kg IA (Group 4), individual animals, 0.1 mg/kg
[3] = BETi1 1 mg/kg IA (Group 3), individual animals, 1 mg/kg
[4] = BETi1 10 mg/kg IA (Group 2), Av
[5] = BETi1 10 mg/kg IA (Group 2), individual animals, 10 mg/kg

## Cn1cc(-c2cccc(O)c2Oc2ccccc2)c2cc[nH]c2c1=O [BETi1]
[1]
  Weight per day, Day 5: 18.6 g
  Weight per day, Day 6: 18.1 g
  Weight per day, Day 7: 18.1 g
  Weight per day, Day 8: 17.9 g
  Weight per day, Day 10: 18.1 g
  Weight per day, Day 12: 19.1 g
[2]
  Weight per day, Baseline: 20.2 g and 21 g and 19.7 g and 21.9 g and 20.3 g and 21.5 g and 18.5 g
  Weight per day, Day 3: 20 g and 21.2 g (2×) and 20.3 g and 22.4 g and 20.6 g and 18.8 g
  Weight per day, Day 4: 20 g and 21.3 g and 18 g and 21.9 g and 20.4 g and 21.4 g and 19.1 g
  Weight per day, Day 5: 18.1 g and 19 g and 16.6 g and 20.5 g and 19.4 g (2×) and 17.4 g
  Weight per day, Day 6: 17.3 g and 18.7 g and 16.5 g and 19.7 g and 18.5 g and 18.9 g and 17.2 g
  Weight per day, Day 7: 17.8 g and 18.8 g (2×) and 16.8 g and 19.5 g and 18.2 g and 16.7 g
  Weight per day, Day 8: 17.5 g and 18.4 g (3×) and 16.7 g and 19.5 g and 16.6 g
  Weight per day, Day 10: 18.2 g and 19 g and 16.8 g (2×) and 19.4 g and 17.7 g and 19.1 g
  Weight per day, Day 12: 18.8 g and 19.9 g and 17.5 g and 20.7 g and 18.7 g and 20.2 g and 18 g
BETi1 1 mg/kg IA (Group 3), Av
  Weight per day, Baseline: 20.7 g
  Weight per day, Day 3: 20.7 g
  Weight per day, Day 4: 21 g
  Weight per day, Day 5: 19 g
  Weight per day, Day 6: 18.5 g
  Weight per day, Day 7: 18.6 g
  Weight per day, Day 8: 18.9 g
  Weight per day, Day 10: 19.3 g
  Weight per day, Day 12: 20.1 g
[3]
  Weight per day, Baseline: 20.4 g and 22.5 g and 20.3 g and 19.9 g and 21.5 g and 19.7 g and 20.6 g
  Weight per day, Day 3: 20.6 g and 22.1 g and 20.8 g and 19.6 g and 21 g and 19.8 g and 20.9 g
  Weight per day, Day 4: 20.8 g and 22.5 g and 21.1 g and 19.9 g (2×) and 21.7 g and 21 g
  Weight per day, Day 5: 19.1 g and 20.2 g and 19.2 g (2×) and 17.7 g and 17.9 g and 19.5 g
  Weight per day, Day 6: 18.7 g and 18.6 g and 18.8 g (2×) and 18 g and 19.3 g and 17.2 g
  Weight per day, Day 7: 18.3 g and 18.9 g (2×) and 17.8 g and 19.4 g and 17.7 g and 19.2 g
  Weight per day, Day 8: 18.5 g and 19.8 g and 18.8 g and 17.9 g and 19.3 g and 18.2 g and 19.6 g
  Weight per day, Day 10: 18.8 g and 21.3 g and 19 g and 18.6 g and 19.3 g and 18.7 g and 19.2 g
  Weight per day, Day 12: 19.4 g (2×) and 22.5 g and 19.9 g and 19.3 g and 20.1 g (2×)
[4]
  Weight per day, Baseline: 21.3 g
  Weight per day, Day 3: 21.4 g
  Weight per day, Day 4: 21.5 g
  Weight per day, Day 5: 19.6 g
  Weight per day, Day 6: 19.6 g
  Weight per day, Day 7: 19.5 g
  Weight per day, Day 8: 19.2 g
  Weight per day, Day 10: 19.4 g
  Weight per day, Day 12: 20.2 g
[5]
  Weight per day, Baseline: 20.2 g and 21.6 g and 20.8 g and 21.7 g and 21.4 g and 22.2 g and 21.3 g
  Weight per day, Day 3: 20.1 g and 21.5 g (2×) and 21.3 g (2×) and 22 g and 21.8 g
  Weight per day, Day 4: 20.2 g and 21.4 g (2×) and 22.4 g and 21.6 g and 21.9 g and 21.7 g
  Weight per day, Day 5: 18.5 g and 20.1 g and 19.3 g and 20.3 g and 19.9 g and 19.4 g
  Weight per day, Day 6: 18.9 g and 19.8 g and 19.2 g and 19.5 g (2×) and 20.4 g
  Weight per day, Day 7: 18.7 g and 19.4 g and 19.5 g and 19.6 g (2×) and 20.3 g
  Weight per day, Day 8: 18.6 g and 19.2 g and 19.6 g and 18.8 g and 20.2 g and 19.1 g
  Weight per day, Day 10: 18.3 g and 19.2 g and 19.8 g and 19.6 g and 20.5 g and 19.3 g
  Weight per day, Day 12: 19.3 g and 20.3 g and 20.4 g and 19.9 g and 21.1 g and 20 g
0.01 mg/kg IA (Group 5), Baseline
  Average clinical score per day (untreated): 0.00 points
0.01 mg/kg IA (Group 5), Day 3
  Average clinical score per day (untreated): 0.00 points
0.01 mg/kg IA (Group 5), Day 4
  Average clinical score per day (untreated): 0.00 points
0.01 mg/kg IA (Group 5), Day 5
  Average clinical score per day (untreated): 0.00 points
0.01 mg/kg IA (Group 5), Day 6
  Average clinical score per day (untreated): 0.86 points
0.01 mg/kg IA (Group 5), Day 7
  Average clinical score per day (untreated): 1.57 points
0.01 mg/kg IA (Group 5), Day 8
  Average clinical score per day (untreated): 1.71 points
0.01 mg/kg IA (Group 5), Day 10
  Average clinical score per day (untreated): 2.14 points
0.01 mg/kg IA (Group 5), Day 12
  Average clinical score per day (untreated): 1.43 points
0.1 mg/kg IA (Group 4), Baseline
  Average clinical score per day (untreated): 0.00 points
0.1 mg/kg IA (Group 4), Day 3
  Average clinical score per day (untreated): 0.00 points
0.1 mg/kg IA (Group 4), Day 4
  Average clinical score per day (untreated): 0.00 points
0.1 mg/kg IA (Group 4), Day 5
  Average clinical score per day (untreated): 0.00 points
0.1 mg/kg IA (Group 4), Day 6
  Average clinical score per day (untreated): 1.14 points
0.1 mg/kg IA (Group 4), Day 7
  Average clinical score per day (untreated): 2.00 points
0.1 mg/kg IA (Group 4), Day 8
  Average clinical score per day (untreated): 2.29 points
0.1 mg/kg IA (Group 4), Day 10
  Average clinical score per day (untreated): 2.57 points
0.1 mg/kg IA (Group 4), Day 12
  Average clinical score per day (untreated): 3.00 points
1 mg/kg IA (Group 3), Baseline
  Average clinical score per day (untreated): 0.00 points
1 mg/kg IA (Group 3), Day 3
  Average clinical score per day (untreated): 0.00 points
1 mg/kg IA (Group 3), Day 4
  Average clinical score per day (untreated): 0.00 points
1 mg/kg IA (Group 3), Day 5
  Average clinical score per day (untreated): 0.00 points
1 mg/kg IA (Group 3), Day 6
  Average clinical score per day (untreated): 0.71 points
1 mg/kg IA (Group 3), Day 7
  Average clinical score per day (untreated): 1.43 points
1 mg/kg IA (Group 3), Day 8
  Average clinical score per day (untreated): 2.43 points
1 mg/kg IA (Group 3), Day 10
  Average clinical score per day (untreated): 2.00 points
1 mg/kg IA (Group 3), Day 12
  Average clinical score per day (untreated): 2.43 points
10 mg/kg IA (Group 2), Baseline
  Average clinical score per day (untreated): 0.00 points
10 mg/kg IA (Group 2), Day 3
  Average clinical score per day (untreated): 0.00 points
10 mg/kg IA (Group 2), Day 4
  Average clinical score per day (untreated): 0.00 points
10 mg/kg IA (Group 2), Day 5
  Average clinical score per day (untreated): 0.00 points
10 mg/kg IA (Group 2), Day 6
  Average clinical score per day (untreated): 0.83 points
10 mg/kg IA (Group 2), Day 7
  Average clinical score per day (untreated): 1.83 points
10 mg/kg IA (Group 2), Day 8
  Average clinical score per day (untreated): 3.00 points
10 mg/kg IA (Group 2), Day 10
  Average clinical score per day (untreated): 3.00 points
10 mg/kg IA (Group 2), Day 12
  Average clinical score per day (untreated): 3.33 points
